Measured values from patent US5672715A, “Herbicidal substituted 3-aryl-pyrazoles” (Monsanto Company, priority 1995, dated 1997).
Where two headings read alike, the source gives them in different places.

What was measured:
Assay type in all cases: in vivo
Barnyardgrass = assay: pre-emergence herbicide test; settings: Echinochloa crus-galli, pre-emergence, read-out: % plant inhibition
In short: (§1)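 Pre-emergence soil treatment: seeds on compacted topsoil, cover layer dosed with test compound in organic solvent (e.g. acetone) or water. Greenhouse, subirrigated as needed, sometimes 1/4 inch overhead water right after treatment. Read-out ~14 d: % inhibition.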

Cocklebur = assay: pre-emergence herbicide test; settings: Xanthium strumarium, pre-emergence, read-out: % plant inhibition
In short: as §1

Corn [1] = assay: pre-emergence herbicide test
In short: as §1

Morning Glory [2] = assay: pre-emergence herbicide test; settings: Ipomoea, pre-emergence, read-out: % plant inhibition
In short: as §1

Rice = assay: pre-emergence herbicide test; settings: Oryza sativa, read-out: % plant inhibition
In short: as §1

Soybean = assay: pre-emergence herbicide test; settings: Glycine max, pre-emergence, read-out: % plant inhibition
In short: as §1

Velvetleaf [3] = assay: pre-emergence herbicide test; settings: Abutilon theophrasti, pre-emergence, read-out: % plant inhibition
In short: as §1

Yellow Foxtail [4] = assay: pre-emergence herbicide test; settings: Setaria, read-out: % plant inhibition
In short: as §1

Yellow Nutsedge [5] = assay: pre-emergence herbicide test; settings: Cyperus, read-out: % plant inhibition
In short: as §1

Blackgrass = assay: post-emergence herbicide test; settings: Alopecurus myosuroides, post-emergence, read-out: % plant inhibition; for inhibition at 7.95803 g/ha: 0.0071 lb/A; for inhibition at 40.0143 g/ha: 0.0357 lb/A; for inhibition at 200.072 g/ha: 0.1785 lb/A; for inhibition at 1000.92 g/ha: 0.893 lb/A
In short: (§2)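 Two- to three-week-old plants, greenhouse-grown in compacted topsoil, received candidate chemical by atomizer spray at 1870 L/Ha. Scored as percent inhibition.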

Common Chickweed = assay: post-emergence herbicide test; settings: post-emergence, read-out: % plant inhibition
In short: as §2

Corn [6] = assay: post-emergence herbicide test; settings: Zea mays, post-emergence, read-out: % plant inhibition
In short: as §2

Morning Glory [7] = assay: post-emergence herbicide test; settings: Ipomoea, post-emergence, read-out: % plant inhibition
In short: as §2

Velvetleaf [8] = assay: post-emergence herbicide test; settings: Abutilon theophrasti, post-emergence, read-out: % plant inhibition
In short: as §2

Yellow Foxtail [9] = assay: post-emergence herbicide test; settings: Setaria, read-out: % plant inhibition
In short: as §2

Yellow Nutsedge [10] = assay: post-emergence herbicide test; settings: Cyperus, read-out: % plant inhibition
In short: as §2

`COc1cc(-c2nn(C)c(C(F)(F)F)c2C)c(F)cc1Cl` [Compound 37] was tested, and the inhibition at 7.95803 g/ha (Barnyardgrass; 0.0071 lb/A) was 80%, the inhibition at 40.0143 g/ha (Barnyardgrass; 0.0357 lb/A) was 100% and the inhibition at 200.072 g/ha (Barnyardgrass; 0.1785 lb/A) was 100%. The inhibition at 280.212 g/ha (Barnyardgrass; 0.25 lb/A) was 100%, the inhibition at 1000.92 g/ha (Barnyardgrass; 0.893 lb/A) was 100% and the inhibition at 7.95803 g/ha (Cocklebur; 0.0071 lb/A) was 100%. For the same molecule, the inhibition at 40.0143 g/ha (Cocklebur; 0.0357 lb/A) was 75%, the inhibition at 200.072 g/ha (Cocklebur; 0.1785 lb/A) was 80% and the inhibition at 280.212 g/ha (Cocklebur; 0.25 lb/A) was 60%. For the same molecule, the inhibition at 1000.92 g/ha (Cocklebur; 0.893 lb/A) was 98%, the “% plant inhibition” value (Corn [1]; 0.25 lb/A) was 98% and the inhibition at 7.95803 g/ha (Corn [1]; Zea mays, pre-emergence, 0.0071 lb/A, read-out: % plant inhibition) was 25%. For the same molecule, the inhibition at 40.0143 g/ha (Corn [1]; Zea mays, pre-emergence, 0.0357 lb/A, read-out: % plant inhibition) was 50%, the inhibition at 200.072 g/ha (Corn [1]; Zea mays, pre-emergence, 0.1785 lb/A, read-out: % plant inhibition) was 85% and the inhibition at 280.212 g/ha (Corn [1]; Zea mays, pre-emergence, 0.25 lb/A, read-out: % plant inhibition) was 95%. For the same molecule, the inhibition at 1000.92 g/ha (Corn [1]; Zea mays, pre-emergence, 0.893 lb/A, read-out: % plant inhibition) was 100%, the inhibition at 7.95803 g/ha (Morning Glory [2]; 0.0071 lb/A) was 80% and the inhibition at 40.0143 g/ha (Morning Glory [2]; 0.0357 lb/A) was 98%. It also gave an inhibition at 200.072 g/ha (Morning Glory [2]; 0.1785 lb/A) of 90%, an inhibition at 280.212 g/ha (Morning Glory [2]; 0.25 lb/A) of 98% and an inhibition at 1000.92 g/ha (Morning Glory [2]; 0.893 lb/A) of 100%. It also gave an inhibition at 7.95803 g/ha (Rice; 0.0071 lb/A) of 25%, an inhibition at 40.0143 g/ha (Rice; 0.0357 lb/A) of 0% and an inhibition at 200.072 g/ha (Rice; 0.1785 lb/A) of 85%. It also gave an inhibition at 1000.92 g/ha (Rice; 0.893 lb/A) of 100%, an inhibition at 7.95803 g/ha (Soybean; 0.0071 lb/A) of 20% and an inhibition at 40.0143 g/ha (Soybean; 0.0357 lb/A) of 50%. It also gave an inhibition at 200.072 g/ha (Soybean; 0.1785 lb/A) of 50%, an inhibition at 280.212 g/ha (Soybean; 0.25 lb/A) of 35% and an inhibition at 1000.92 g/ha (Soybean; 0.893 lb/A) of 100%. It also gave an inhibition at 7.95803 g/ha (Velvetleaf [3]; 0.0071 lb/A) of 98%, an inhibition at 40.0143 g/ha (Velvetleaf [3]; 0.0357 lb/A) of 100% and an inhibition at 200.072 g/ha (Velvetleaf [3]; 0.1785 lb/A) of 100%. For the same molecule, the inhibition at 280.212 g/ha (Velvetleaf [3]; 0.25 lb/A) was 100%, the inhibition at 1000.92 g/ha (Velvetleaf [3]; 0.893 lb/A) was 100% and the inhibition at 7.95803 g/ha (Yellow Foxtail [4]; 0.0071 lb/A) was 55%. For the same molecule, the inhibition at 40.0143 g/ha (Yellow Foxtail [4]; 0.0357 lb/A) was 95%, the inhibition at 200.072 g/ha (Yellow Foxtail [4]; 0.1785 lb/A) was 100% and the inhibition at 280.212 g/ha (Yellow Foxtail [4]; 0.25 lb/A) was 100%. It also gave an inhibition at 1000.92 g/ha (Yellow Foxtail [4]; 0.893 lb/A) of 100%, an inhibition at 7.95803 g/ha (Yellow Nutsedge [5]; 0.0071 lb/A) of 0% and an inhibition at 40.0143 g/ha (Yellow Nutsedge [5]; 0.0357 lb/A) of 35%. It also gave an inhibition at 200.072 g/ha (Yellow Nutsedge [5]; 0.1785 lb/A) of 50%, an inhibition at 1000.92 g/ha (Yellow Nutsedge [5]; 0.893 lb/A) of 45% and an inhibition at 7.95803 g/ha (Blackgrass; Table 4a) of 0%. It also gave an inhibition at 7.95803 g/ha (Blackgrass; Table 5a) of 10%, an inhibition at 40.0143 g/ha (Blackgrass; Table 4a) of 0% and an inhibition at 40.0143 g/ha (Blackgrass; Table 5a) of 25%. It also gave an inhibition at 200.072 g/ha (Blackgrass; Table 4a) of 10%, an inhibition at 200.072 g/ha (Blackgrass; Table 5a) of 65% and an inhibition at 1000.92 g/ha (Blackgrass; Table 4a) of 15%. The inhibition at 1000.92 g/ha (Blackgrass; Table 5a) was 85%, the inhibition at 7.95803 g/ha (Common Chickweed; 0.0071 lb/A) was 0% and the inhibition at 40.0143 g/ha (Common Chickweed; 0.0357 lb/A) was 40%. It also gave an inhibition at 200.072 g/ha (Common Chickweed; 0.1785 lb/A) of 70%, an inhibition at 1000.92 g/ha (Common Chickweed; 0.893 lb/A) of 80% and an inhibition at 7.95803 g/ha (Corn [6]; 0.0071 lb/A) of 5%. It also gave an inhibition at 40.0143 g/ha (Corn [6]; 0.0357 lb/A) of 10%, an inhibition at 200.072 g/ha (Corn [6]; 0.1785 lb/A) of 50% and an inhibition at 1000.92 g/ha (Corn [6]; 0.893 lb/A) of 100%. It also gave an inhibition at 7.95803 g/ha (Morning Glory [7]; 0.0071 lb/A) of 0%, an inhibition at 40.0143 g/ha (Morning Glory [7]; 0.0357 lb/A) of 45% and an inhibition at 200.072 g/ha (Morning Glory [7]; 0.1785 lb/A) of 95%. For the same molecule, the inhibition at 1000.92 g/ha (Morning Glory [7]; 0.893 lb/A) was 100%, the inhibition at 7.95803 g/ha (Velvetleaf [8]; 0.0071 lb/A) was 25% and the inhibition at 40.0143 g/ha (Velvetleaf [8]; 0.0357 lb/A) was 35%. For the same molecule, the inhibition at 200.072 g/ha (Velvetleaf [8]; 0.1785 lb/A) was 50%, the inhibition at 1000.92 g/ha (Velvetleaf [8]; 0.893 lb/A) was 100% and the inhibition at 7.95803 g/ha (Yellow Foxtail [9]; 0.0071 lb/A) was 0%. For the same molecule, the inhibition at 40.0143 g/ha (Yellow Foxtail [9]; 0.0357 lb/A) was 20%, the inhibition at 200.072 g/ha (Yellow Foxtail [9]; 0.1785 lb/A) was 65% and the inhibition at 1000.92 g/ha (Yellow Foxtail [9]; 0.893 lb/A) was 65%. The inhibition at 7.95803 g/ha (Yellow Nutsedge [10]; 0.0071 lb/A) was 0%, the inhibition at 40.0143 g/ha (Yellow Nutsedge [10]; 0.0357 lb/A) was 10% and the inhibition at 200.072 g/ha (Yellow Nutsedge [10]; 0.1785 lb/A) was 15%. For the same molecule, the inhibition at 1000.92 g/ha (Yellow Nutsedge [10]; 0.893 lb/A) was 40%.
